Results published in ChEMBL document CHEMBL4483862, “Open-source discovery of chemical leads for next-generation chemoprotective antimalarials” (2018).
pIC50: −log10 of the molar value.

Test system: Plasmodium berghei
Assay: Luciferase/luciferin-expressing antifolate-resistant parasites were used to infect a culture of HepG2 cells that were pre-incubated with compounds. Infected hepatocytes emit light due to the luciferase reaction. Assay results are presented as the percent inhibition of light emission compared to control. […]
Format: functional
Settings: sporozoite; for IC90: read-out: LUCIFERASE INFECTION ASSAY - IC90

Compound	IC90 [µM]	also measured
CN1N=C2c3ccccc3CCC2C1c1ccc(C(F)(F)F)cc1 (stereo unspecified)	1.66	pIC50 (PBLUC_HILL_SLOPE 1.95, PBLUC_R_SQUARED 0.843, read-out: LUCIFERASE INFECTION ASSAY - IC50): 6.27
COc1ccc(C(=O)NCC(C)(C)SCc2c(C)cc(C)cc2C)cc1	> 8.88	pIC50 (PBLUC_HILL_SLOPE 1.94, PBLUC_R_SQUARED 0.532, read-out: LUCIFERASE INFECTION ASSAY - IC50): 5.51
CN(c1ccccc1)S(=O)(=O)c1ccc(NC(=O)c2cccs2)cc1	8.27	pIC50 (PBLUC_HILL_SLOPE 1.98, PBLUC_R_SQUARED 0.132, read-out: LUCIFERASE INFECTION ASSAY - IC50): 5.56
COc1cc(NC(=O)N2CCc3nc(Nc4cc(Cl)cc(Cl)c4)ncc3C2)cc(OC)c1OC	> 6.54	pIC50 (PBLUC_HILL_SLOPE 1.96, PBLUC_R_SQUARED 0.41, read-out: LUCIFERASE INFECTION ASSAY - IC50): 5.45
CC(C)(C)c1cc(C(=O)N/N=C/c2ccc([N+](=O)[O-])s2)[nH]n1	> 10.3	pIC50 (PBLUC_HILL_SLOPE 1.97, PBLUC_R_SQUARED 0.294, read-out: LUCIFERASE INFECTION ASSAY - IC50): 5.44
O=C1NC(=O)/C(=C/c2cccc(C#Cc3ccccc3)c2)S1	> 10.8	pIC50 (PBLUC_HILL_SLOPE 1.96, PBLUC_R_SQUARED 0.068, read-out: LUCIFERASE INFECTION ASSAY - IC50): 5.18
Nc1ncc(-c2ccc(-c3ccccc3)cc2F)cc1-c1cncc2ccccc12	> 8.43	pIC50 (PBLUC_HILL_SLOPE 1.93, PBLUC_R_SQUARED 0.0355, read-out: LUCIFERASE INFECTION ASSAY - IC50): < 5.07
Cc1[nH]c2ccccc2c1C(=O)COc1ccc(N(C)S(=O)(=O)c2ccccc2F)cc1	> 10	pIC50 (PBLUC_HILL_SLOPE 1.92, PBLUC_R_SQUARED 0.479, read-out: LUCIFERASE INFECTION ASSAY - IC50): 5.28
Cc1ccc(-c2cnn3c(NCCN(C)C)cc(C)nc23)cc1	10.6	pIC50 (PBLUC_HILL_SLOPE 1.98, PBLUC_R_SQUARED 0.569, read-out: LUCIFERASE INFECTION ASSAY - IC50): 5.46
CN1/C(=C\C(=O)CSc2nc(N)c3ccsc3n2)C(C)(C)c2ccccc21	> 10	pIC50 (PBLUC_HILL_SLOPE 1.96, PBLUC_R_SQUARED 0.352, read-out: LUCIFERASE INFECTION ASSAY - IC50): 5.08
CC(Sc1nnc(-c2ccc(C(C)(C)C)cc2)o1)C(=O)NCc1ccccc1Cl (stereo unspecified)	> 10	pIC50 (PBLUC_HILL_SLOPE 1.93, PBLUC_R_SQUARED 0.876, read-out: LUCIFERASE INFECTION ASSAY - IC50): 5.38
Cc1ccc(C)c(Sc2ccc(NC(=O)CN3C(=O)NC(Cc4ccccc4)C3=O)cc2)c1 (stereo unspecified)	> 10	pIC50 (PBLUC_HILL_SLOPE 1.97, PBLUC_R_SQUARED 0.872, read-out: LUCIFERASE INFECTION ASSAY - IC50): 5.23
O=C(NC(=S)Nc1ccc(Oc2cc(C(F)(F)F)cc(C(F)(F)F)c2)cc1)c1ccccc1	4.3	pIC50 (PBLUC_HILL_SLOPE 1.93, PBLUC_R_SQUARED 0.641, read-out: LUCIFERASE INFECTION ASSAY - IC50): 5.86
O=C(CN1CCN(S(=O)(=O)c2cccs2)CC1)Nc1ccccc1C(=O)c1ccccc1	> 10	pIC50 (PBLUC_HILL_SLOPE 1.98, PBLUC_R_SQUARED 0.361, read-out: LUCIFERASE INFECTION ASSAY - IC50): 5.27
Cc1cc(C(=O)Nc2ccc(OCc3ncc(C(F)(F)F)cc3Cl)cc2)no1	1.33	pIC50 (PBLUC_HILL_SLOPE 1.94, PBLUC_R_SQUARED 0.889, read-out: LUCIFERASE INFECTION ASSAY - IC50): 6.37
O=C(c1ccccc1)c1ccc(OCC(O)CNC2CCCCCCC2)cc1 (stereo unspecified)	> 10	pIC50 (PBLUC_HILL_SLOPE 1.94, PBLUC_R_SQUARED 0.684, read-out: LUCIFERASE INFECTION ASSAY - IC50): 5.20
Cc1ccc2[nH]c(=S)n(-c3cc(Cl)ccc3C)c(=O)c2c1	> 10.4	pIC50 (PBLUC_HILL_SLOPE 1.97, PBLUC_R_SQUARED 0.142, read-out: LUCIFERASE INFECTION ASSAY - IC50): 5.04

Compound	IC90 [µM]	also measured
Cc1csc(CNc2nc(-c3cccnc3)nc3sc(C)c(C)c23)n1	5.63	pIC50 (PBLUC_HILL_SLOPE 1.92, PBLUC_R_SQUARED 0.84, read-out: LUCIFERASE INFECTION ASSAY - IC50): 5.75
OCCNc1nc(Oc2ccc(-c3ccccc3)cc2)nc2ccccc12	1.97	pIC50 (PBLUC_HILL_SLOPE 1.95, PBLUC_R_SQUARED 0.572, read-out: LUCIFERASE INFECTION ASSAY - IC50): 6.19
Fc1cccc(-n2ccnc2SCc2nc3ccccc3s2)c1	> 10	pIC50 (PBLUC_HILL_SLOPE 1.97, PBLUC_R_SQUARED 0.394, read-out: LUCIFERASE INFECTION ASSAY - IC50): 5.16
CN(C)c1cccc(-c2cnc3cnc(-c4cccc(C(=O)NCCO)c4)cn23)c1	> 8.22	pIC50 (PBLUC_HILL_SLOPE 1.98, PBLUC_R_SQUARED 0.622, read-out: LUCIFERASE INFECTION ASSAY - IC50): 5.29
C=CCn1c(C)cc(C(=O)COC(=O)C(O)(c2ccccc2)c2ccccc2)c1C	5.78	pIC50 (PBLUC_HILL_SLOPE 1.92, PBLUC_R_SQUARED 0.565, read-out: LUCIFERASE INFECTION ASSAY - IC50): 5.74
Cc1cccc(NC(=O)c2ccc(Cl)c(S(=O)(=O)Nc3c(C)n(C)n(-c4ccccc4)c3=O)c2)n1	> 10	pIC50 (PBLUC_HILL_SLOPE 1.97, PBLUC_R_SQUARED 0.221, read-out: LUCIFERASE INFECTION ASSAY - IC50): 5.04
O=C(N/N=C/C1=C(N2CCOCC2)C(=C/c2ccc(Cl)cc2Cl)/CC1)c1ccco1	6.76	pIC50 (PBLUC_HILL_SLOPE 1.95, PBLUC_R_SQUARED 0.652, read-out: LUCIFERASE INFECTION ASSAY - IC50): 5.66
COc1cc2nc(-c3ccccc3)nc(N3CCN(CCN4CCCC4)CC3)c2cc1OC	7.65	pIC50 (PBLUC_HILL_SLOPE 1.93, PBLUC_R_SQUARED 0.643, read-out: LUCIFERASE INFECTION ASSAY - IC50): 5.61
Cn1c(N)c(C(=O)CSc2nnc(-c3ccccc3)c(-c3ccccc3)n2)c(=O)n(C)c1=O	> 10	pIC50 (PBLUC_HILL_SLOPE 1.94, PBLUC_R_SQUARED 0.495, read-out: LUCIFERASE INFECTION ASSAY - IC50): 5.43
CSc1c(C#N)c(-c2ccc(Cl)cc2)nn1C(=O)C(C)C	> 10.3	pIC50 (PBLUC_HILL_SLOPE 1.94, PBLUC_R_SQUARED 0.662, read-out: LUCIFERASE INFECTION ASSAY - IC50): < 4.99
CC(=O)n1nc(NCc2cccc(Cl)c2)nc1NCc1cccc(Cl)c1	> 8.46	pIC50 (PBLUC_HILL_SLOPE 1.95, PBLUC_R_SQUARED 0.375, read-out: LUCIFERASE INFECTION ASSAY - IC50): 5.37
Cc1cc(C)c(C(=O)C2CCN(C(=O)c3cccs3)CC2)c(C)c1	> 9.66	pIC50 (PBLUC_HILL_SLOPE 1.97, PBLUC_R_SQUARED 0.657, read-out: LUCIFERASE INFECTION ASSAY - IC50): 5.40
CCOC(=O)c1sc(N)c(C#N)c1CSc1ncc(C(F)(F)F)cc1Cl	> 10	pIC50 (PBLUC_HILL_SLOPE 1.96, PBLUC_R_SQUARED 0.0831, read-out: LUCIFERASE INFECTION ASSAY - IC50): < 5.00
CN1CCN(c2ccc(-c3cn4c(-c5cccc(Cl)c5)cnc4cn3)cn2)CC1	> 8.15	pIC50 (PBLUC_HILL_SLOPE 1.98, PBLUC_R_SQUARED 0.725, read-out: LUCIFERASE INFECTION ASSAY - IC50): 5.27
O=C(Nc1ccc(F)cc1F)Nc1cc(Cl)sc1Cl	> 10.2	pIC50 (PBLUC_HILL_SLOPE 1.97, PBLUC_R_SQUARED 0.405, read-out: LUCIFERASE INFECTION ASSAY - IC50): 5.16
COc1ccc2nc(-c3ccccc3)cc(NCCN(C)C)c2c1	> 10.3	pIC50 (PBLUC_HILL_SLOPE 1.97, PBLUC_R_SQUARED 0.162, read-out: LUCIFERASE INFECTION ASSAY - IC50): 5.34
